Experimental data from paper PMC9841765 (Archives of biochemistry and biophysics, 2020).

Legend:
Experiment in all cases: malachite green phosphate release
Assay type in all cases: biochemical
Settings in all cases: pH 8.0, 5 mM MgCl2, 200 mM KCl, 37 °C
SmNFeoB = biological target: T1, SmNFeoB (Streptococcus mutans, UniProt Q8DVC3)
T1 sequence (Q8DVC3 1-273): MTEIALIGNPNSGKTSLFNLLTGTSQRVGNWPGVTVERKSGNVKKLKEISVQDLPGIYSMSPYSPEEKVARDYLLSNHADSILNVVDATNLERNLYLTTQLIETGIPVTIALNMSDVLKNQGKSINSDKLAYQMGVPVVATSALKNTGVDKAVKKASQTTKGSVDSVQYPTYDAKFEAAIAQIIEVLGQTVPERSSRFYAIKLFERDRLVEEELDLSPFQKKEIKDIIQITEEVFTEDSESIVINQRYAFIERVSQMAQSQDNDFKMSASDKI

LmNFeoB = LmNFeoB (Listeria monocytogenes, UniProt Q8Y5F9)
SaNFeoB = SaNFeoB (Staphylococcus aureus, UniProt Q5HD01)
BcNFeoB = biological target: T2, BcNFeoB (Bacillus cereus, UniProt Q72YQ6)
T2 sequence (Q72YQ6 1-269): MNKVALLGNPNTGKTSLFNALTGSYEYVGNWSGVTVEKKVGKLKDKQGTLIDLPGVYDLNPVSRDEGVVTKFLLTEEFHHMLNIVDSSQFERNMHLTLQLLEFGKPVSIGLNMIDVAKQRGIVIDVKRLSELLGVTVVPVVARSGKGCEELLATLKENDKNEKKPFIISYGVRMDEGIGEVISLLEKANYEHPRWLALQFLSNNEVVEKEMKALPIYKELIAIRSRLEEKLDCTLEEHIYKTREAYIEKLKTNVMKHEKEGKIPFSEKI

PaNFeoB = PaNFeoB (Pseudomonas aeruginosa, UniProt Q9HW43)
EcNFeoB = biological target: T3, EcNFeoB (Escherichia coli, UniProt P33650)
T3 sequence (P33650 1-274): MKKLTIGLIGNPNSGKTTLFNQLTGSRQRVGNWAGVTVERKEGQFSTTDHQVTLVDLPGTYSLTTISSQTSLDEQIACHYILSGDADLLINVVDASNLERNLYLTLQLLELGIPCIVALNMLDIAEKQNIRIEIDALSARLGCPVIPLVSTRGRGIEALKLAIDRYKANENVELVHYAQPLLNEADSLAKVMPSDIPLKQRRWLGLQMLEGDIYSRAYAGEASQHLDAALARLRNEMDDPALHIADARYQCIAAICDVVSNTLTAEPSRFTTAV

StNFeoB = StNFeoB (Salmonella enterica, UniProt P74884)
Sequence of StNFeoB (P74884 1-274): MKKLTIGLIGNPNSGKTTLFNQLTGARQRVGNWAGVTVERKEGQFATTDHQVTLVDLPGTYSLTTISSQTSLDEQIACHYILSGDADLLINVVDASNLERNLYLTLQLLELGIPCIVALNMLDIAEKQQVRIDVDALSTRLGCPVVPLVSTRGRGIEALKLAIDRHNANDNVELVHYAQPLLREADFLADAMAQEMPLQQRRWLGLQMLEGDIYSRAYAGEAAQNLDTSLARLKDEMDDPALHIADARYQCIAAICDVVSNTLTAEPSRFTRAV

Sequence of SaNFeoB (Q5HD01 1-272): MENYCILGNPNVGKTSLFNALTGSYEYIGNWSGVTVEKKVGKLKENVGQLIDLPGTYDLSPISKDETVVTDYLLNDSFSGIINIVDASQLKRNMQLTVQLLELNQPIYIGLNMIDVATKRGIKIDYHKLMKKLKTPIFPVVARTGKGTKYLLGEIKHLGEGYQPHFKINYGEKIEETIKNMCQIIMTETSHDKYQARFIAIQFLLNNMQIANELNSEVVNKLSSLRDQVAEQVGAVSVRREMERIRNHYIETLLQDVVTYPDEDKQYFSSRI

Structure (SMILES)	malachite green phosphate release (SmNFeoB)	malachite green phosphate release (LmNFeoB)	malachite green phosphate release (SaNFeoB)	malachite green phosphate release (BcNFeoB)	malachite green phosphate release (PaNFeoB)	malachite green phosphate release (EcNFeoB)	malachite green phosphate release (StNFeoB)
Nc1ncnc2c1ncn2[C@@H]1O[C@H](COP(=O)(O)OP(=O)(O)OP(=O)(O)O)[C@@H](O)[C@H]1O [ATP]	the NFeoB activities of S. aureus, S. mutans, and B. cereus	LmNFeoB exhibited ATP hydrolysis activity similar to the activity of VcNFeoB	the NFeoB activities of S. aureus, S. mutans, and B. cereus	the NFeoB activities of S. aureus, S. mutans, and B. cereus			
Nc1nc2c(ncn2[C@@H]2O[C@H](COP(=O)(O)OP(=O)(O)OP(=O)(O)O)[C@@H](O)[C@H]2O)c(=O)[nH]1 [GTP]	the NFeoB activities of S. aureus, S. mutans, and B. cereus	Its GTPase activity was higher than other monovalent cations	the NFeoB activities of S. aureus, S. mutans, and B. cereus	the NFeoB activities of S. aureus, S. mutans, and B. cereus	S. Typhimurium and P. aeruginosa exhibited only GTP hydrolytic activity	Like E. coli, S. Typhimurium and P. aeruginosa exhibited only GTP hydrolytic activity	S. Typhimurium and P. aeruginosa exhibited only GTP hydrolytic activity
